Reference: PubChem BioAssay AID214 (DTP/NCI, 2004)
Results filed as inconclusive are left out.

System: B6C3F1 mice, colon carcinoma 38 s.c., T/C
Assay: NCI In Vivo Anticancer Drug Screen. Data for tumor model Colon Carcinoma 38 (subcutaneous) in B6C3F1 mice
Details: endpoint: median tumor weight (est.), higher = larger tumour
Experimental: The antitumor activity of compounds was measured in mice bearing transplantable tumors. Survival or tumor size were measured and the results are expressed as the measurement made in the treated group (T) divided by the measurement made in the vehicle treated control group (C). The tumor model used in this assay is Colon Carcinoma 38 (subcutaneous) in B6C3F1 mice

[1] = dose: 100.0 mg/kg/injection, schedule: Q07DX002 (ip), vehicle: saline
[2] = dose: 200.0 mg/kg/injection, schedule: Q07DX002 (ip), vehicle: saline
[3] = dose: 400.0 mg/kg/injection, schedule: Q07DX002 (ip), vehicle: saline with Tween-80

NC(=O)c1c[se]c(C2OC(CO)C(O)C2O)n1 (configuration not stated)
T/C (dose: 50.0 mg/kg/injection, schedule: Q07DX002 (ip), vehicle: saline): 90 % of control
T/C [1]: 87 % of control
T/C [2]: 84 % of control
T/C (dose: 400.0 mg/kg/injection, schedule: Q07DX002 (ip), vehicle: saline): 92 % of control
T/C (dose: 800.0 mg/kg/injection, schedule: Q07DX002 (ip), vehicle: saline): 56 % of control

O=C(COc1cccc2c(=O)cc(-c3ccccc3)oc12)OCCN1CCOCC1
T/C [1]: 81 % of control
T/C [2]: 43 % of control

C=C1COC(O)(C2OCOC(C3CC(=O)NC(=O)C3)C2O)C1C (configuration not stated)
T/C (dose: 31.25 micrograms/kg/injection, schedule: Q07DX002 (ip), vehicle: water): 119 % of control

Cc1c2ccccc2c(C)c2c1cc(C(=O)O)c1ccccc12
T/C (dose: 12.5 mg/kg/injection, schedule: Q07DX002 (ip), vehicle: sodium bicarbonate): 66 % of control
T/C (dose: 25.0 mg/kg/injection, schedule: Q07DX002 (ip), vehicle: sodium bicarbonate): 98 % of control
T/C (dose: 50.0 mg/kg/injection, schedule: Q07DX002 (ip), vehicle: sodium bicarbonate): 74 % of control
T/C (dose: 62.5 mg/kg/injection, schedule: Q07DX002 (ip), vehicle: sodium bicarbonate): 112 % of control
T/C (dose: 100.0 mg/kg/injection, schedule: Q07DX002 (ip), vehicle: sodium bicarbonate): 107 % of control
T/C (dose: 125.0 mg/kg/injection, schedule: Q07DX002 (ip), vehicle: sodium bicarbonate): 106 % of control
T/C (dose: 200.0 mg/kg/injection, schedule: Q07DX002 (ip), vehicle: sodium bicarbonate): 108 % of control
T/C (dose: 250.0 mg/kg/injection, schedule: Q07DX002 (ip), vehicle: sodium bicarbonate): 76 % of control
T/C (dose: 500.0 mg/kg/injection, schedule: Q07DX002 (ip), vehicle: sodium bicarbonate): 26 % of control
T/C (dose: 1000.0 mg/kg/injection, schedule: Q07DX002 (ip), vehicle: sodium bicarbonate): 23 % of control

O=C1NC(=O)/C(=C/C=C/c2ccccc2)S1
T/C (dose: 200.0 mg/kg/injection, schedule: Q07DX002 (ip), vehicle: saline with Tween-80): 67 % of control
T/C [3]: 86 % of control
T/C (dose: 800.0 mg/kg/injection, schedule: Q07DX002 (ip), vehicle: saline with Tween-80): 63 % of control

O=C1N[C@H]2[C@H](O)[C@H](O)[C@@H](O)[C@H](O)[C@@H]2c2cc3c(c(O)c21)OCO3
T/C (dose: 0.88 mg/kg/injection, schedule: Q01DX008 (ip), vehicle: saline + alcohol): 113 % of control
T/C (dose: 1.75 mg/kg/injection, schedule: Q01DX008 (ip), vehicle: saline + alcohol): 105 % of control
T/C (dose: 3.5 mg/kg/injection, schedule: Q01DX008 (ip), vehicle: saline + alcohol): 88 % of control

COCCCNC1=C(C#N)C(=O)NC(c2cccc([N+](=O)[O-])c2)S1 (configuration not stated)
T/C (dose: 225.0 mg/kg/injection, schedule: Q07DX002 (ip), vehicle: saline with Tween-80): 172 % of control
T/C (dose: 450.0 mg/kg/injection, schedule: Q07DX002 (ip), vehicle: saline with Tween-80): 171 % of control
T/C (dose: 900.0 mg/kg/injection, schedule: Q07DX002 (ip), vehicle: saline with Tween-80): 159 % of control

OCCO
T/C (dose: 1.0 % in 0.5 ml injection vol, schedule: Q07DX002 (ip), vehicle: water): 181 % of control
T/C (dose: 2.0 % in 0.5 ml injection vol, schedule: Q07DX002 (ip), vehicle: water): 160 % of control

C#CCNC1=C(C)C(=O)C2=C(C1=O)[C@H](COC(N)=O)[C@]1(OC)[C@@H]3N[C@@H]3CN21
T/C (dose: 1.5 mg/kg/injection, schedule: Q07DX002 (ip), vehicle: distilled water + Tween-80): 50 % of control
T/C (dose: 3.0 mg/kg/injection, schedule: Q07DX002 (ip), vehicle: distilled water + Tween-80): 60 % of control
T/C (dose: 6.0 mg/kg/injection, schedule: Q07DX002 (ip), vehicle: distilled water + Tween-80): 36 % of control
T/C (dose: 12.0 mg/kg/injection, schedule: Q07DX002 (ip), vehicle: distilled water + Tween-80): 9 % of control

CCCCCC1c2cc(O)ccc2OC1N1CCOCC1 (configuration not stated)
T/C (dose: 25.0 mg/kg/injection, schedule: Q07DX002 (ip), vehicle: saline with Tween-80): 103 % of control
T/C (dose: 50.0 mg/kg/injection, schedule: Q07DX002 (ip), vehicle: saline with Tween-80): 74 % of control
T/C (dose: 100.0 mg/kg/injection, schedule: Q07DX002 (ip), vehicle: saline with Tween-80): 92 % of control
T/C [3]: 81 % of control
